In patent US7109333B2, “Heterocyclic compounds” (SmithKline Beecham Corporation, priority 1998, dated 2006) one finds IC50 data, which are given here for 13 compounds.

Bounds are passed on as bounds.

Test [1] deals with HN5 head and neck tumor cell line. Nature of the test: Methylene blue growth inhibition assay, HN5. The format is cell-based. Conditions: Homo sapiens, 72 h; HN5, 3 days; read-out: Cell Proliferation HN5, IC50. The protocol: (§1) Human breast (BT474), head and neck (HN5) and gastric tumor (N87) cell lines were cultured in low glucose DMEM (Life Technologies 12320–032) containing 10% fetal bovine serum (FBS) at 37° C. in a humidified 10% CO2, 90% air incubator. The SV40 transformed human mammary epithelial cell line HB4a was transfected with either human H-ras cDNA (HB4a r4.2) or the human c-erbB2 cDNA (HB4a c5.2). The HB4a clones were cultured in RPMI containing 10% FBS, insulin (5 μg/ml), hydrocortisone (5 μg/ml), supplemented with the selection agent hygromycin B (50 μg/ml). Cells were harvested using trypsin/EDTA, counted using a haemocytometer, and plated in […] of the appropriate media, at the following densities, in a 96-well tissue culture plate (Falcon 3075): BT474 10,000 cells/well, HN5 3,000 cells/well, N87 10,000 cells/well, HB4a c5.2 3,000 cells/well, HB4a r4.2 3,000 cells/well. The next day, compounds were diluted in DMEM containing […] gentamicin, at twice the final required concentration, from 10 mM stock solutions in DMSO. […] of these dilutions were added to the […] of media currently on the cell plates. Medium containing 0.6% DMSO was added to control wells. Compounds diluted in DMEM were added to all cell lines, including the HB4a r4.2 and HB4a c5.2 cell lines. The final concentration of DMSO in all wells was 0.3%. Cells were incubated at 37° C., 10% CO2 for 3 days. Medium was removed by aspiration. Cell biomass was estimated by staining cells with 100 μl per well methylene blue (Sigma M9140, 0.5% in 50:50 ethanol:water), and incubation at room temperature for at least 30 minutes. Stain was removed, and the plates rinsed under a gentle stream of water, and air-dried. To release stain from the cells 100 μl of solubilization solution was added (1% N-lauroyl sarcosine, Sodium salt, Sigma L5125, in PBS), and plates were shaken gently for about 30 minutes. Optical density at 620 nm was measured on a microplate reader. Percent inhibition of cell growth was calculated relative to vehicle treated control wells. Concentration of compound that inhibits 50% of cell growth (IC50) was interpolated using nonlinear regression (Levenberg-Marquardt) and the equation, y=Vmax*(1−(x/(K+x)))+Y2, where “K” was equal to the IC50.

Test [2] relates to HB4a c5.2 (HB4a transfected with human c-erbB2 cDNA). Description: Methylene blue growth inhibition assay, HB4a erbB2. The format is cell-based. Particulars: 72 h, HB4a c5.2, 3 days, read-out: Cell Proliferation HB4a erbB2, IC50. How it is done:
as §1

For test [3], the system named is BT474 breast tumor cell line. Nature of the test: Methylene blue growth inhibition assay, BT474. Conditions: Homo sapiens, BT-474, 72 h; BT474, 3 days; read-out: Cell Proliferation BT474, IC50. The format is cell-based. How it is done: as §1
Test [4] concerns HB4a r4.2 (HB4a transfected with human H-ras cDNA). Nature of the test: Methylene blue growth inhibition assay, HB4a ras. In kind it is cell-based. Conditions: 72 h, HB4a r4.2, 3 days, read-out: Cell Proliferation HB4a ras, IC50. How it is done: as §1
For test [5], the system named is N87 gastric tumor cell line. Description: Methylene blue growth inhibition assay, N87. The format is cell-based. Particulars: Homo sapiens, 72 h; N87, 3 days; read-out: Cell Proliferation N87, IC50. How it is done: as §1
A further test deals with T1, c-erbB-2 (Homo sapiens, UniProt P04626).
T1 construct: baculovirus expressed, recombinant constructs of the intracellular domains of c-erbB-2 and c-erbB-4; made in house
Description: Substrate phosphorylation assay, erbB2, assay (b) (SPA, 33P-ATP). In kind it is biochemical. Particulars: Tables 1A and 1B. An excerpt:
The substrate phosphorylation assays use baculovirus expressed, recombinant constructs of the intracellular domains of c-erbB-2 and c-erbB-4 that are constitutively active and EGFr isolated from solubilised A431 cell membranes. The method measures the ability of the isolated enzymes to catalyse the transfer of the g-phosphate from ATP onto tyrosine residues in a biotinylated synthetic peptide (Biotin-[…]. Substrate phosphorylation was detected following either of the following two procedures: a.) c-ErbB-2, c-ErbB4 or EGFr were incubated for 30 minutes, at room temperature, with 10 mM MnCl2, 10 mM ATP, 5 mM peptide, and test compound (diluted from a 5 mM stock in DMSO, final DMSO concentration is 2%) in 40 mM HEPES buffer, pH 7.4. The reaction was stopped by the addition of EDTA (final concentration 0.15 mM) and a sample was transferred to a streptavidin-coated 96-well plate. The plate was washed and the level of phosphotyrosine on the peptide was determined using a Europium-labelled antiphosphotyrosine antibody and quantified with a time-resolved fluorescence technique. b.) ErbB2 was incubated for 50 minutes at room temperature with 15 mM MnCl2, 2 mM ATP, 0.25 mCi [γ-^33P] ATP/well, 5 mM peptide substrate, and test compound (diluted from a 10 mM stock in DMSO, final DMSO concentration is 2%) in 50 mM MOPS pH 7.2. The reaction was terminated by the addition of […] of PBS containing 2.5 mg/ml streptavidin-coated SPA beads (Amersham Inc.), 50 mM ATP, 10 mM EDTA and 0.1% TX-100. The microtitre plates were sealed and SPA beads were allowed to settle for at least six hours. The SPA signal was measured using a Packard Topcount 96-well plate scintillation counter (Packard Instrument Co., Meriden, Conn.).

T1 sequence (P04626 676-1255 limits assumed): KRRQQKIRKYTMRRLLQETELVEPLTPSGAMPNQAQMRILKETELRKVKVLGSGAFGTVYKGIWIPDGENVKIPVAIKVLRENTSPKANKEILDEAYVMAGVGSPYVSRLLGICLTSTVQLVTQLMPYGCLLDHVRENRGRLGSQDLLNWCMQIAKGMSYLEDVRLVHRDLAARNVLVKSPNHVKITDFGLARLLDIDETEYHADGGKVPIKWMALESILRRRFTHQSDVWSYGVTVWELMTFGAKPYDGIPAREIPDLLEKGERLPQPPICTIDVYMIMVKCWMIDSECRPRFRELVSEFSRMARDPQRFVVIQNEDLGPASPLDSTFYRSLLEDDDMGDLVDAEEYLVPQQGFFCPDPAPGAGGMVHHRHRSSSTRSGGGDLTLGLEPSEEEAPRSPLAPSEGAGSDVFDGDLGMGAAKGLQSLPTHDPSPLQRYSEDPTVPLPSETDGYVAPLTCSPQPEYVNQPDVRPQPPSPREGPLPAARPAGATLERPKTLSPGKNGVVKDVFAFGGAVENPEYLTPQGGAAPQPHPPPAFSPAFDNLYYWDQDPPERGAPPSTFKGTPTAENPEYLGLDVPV

For `CS(=O)(=O)CCNCc1nc(-c2ccc3ncnc(Nc4ccc5c(cnn5Cc5cccc(F)c5)c4)c3c2)cs1` [Example 21, N-[1-(3-fluorobenzyl)-1H-indazol-5-yl]-6-[2-({[2-(methanesulphonyl)ethyl]amino}methyl)-1,3-thiazol-4-yl]-4-quinazolinamine], the IC50 was less than 5 µM in test [1]; less than 5 µM in test [2]; less than 5 µM in test [3]; 5 to 25 µM in test [4]; less than 5 µM in test [5]; less than 0.1 µM at c-erbB-2.
Turning to `CS(=O)(=O)CCNCc1ccc(-c2ccc3ncnc(Nc4ccc(S(=O)(=O)c5ccccc5)cc4)c3c2)o1` [Example 22, 6-[5-({[2-(methanesulphonyl)ethyl]amino}methyl)-2-furyl]-N-[4-(benzenesulphonyl)phenyl]-4-quinazolinamine], the IC50 in test [1] was less than 5 µM; in test [2], less than 5 µM; in test [3], less than 5 µM; in test [4], 25 to 50 µM; in test [5] it was less than 5 µM; at c-erbB-2, less than 0.1 µM.
As for `CS(=O)(=O)CCNCc1nc(-c2ccc3ncnc(Nc4ccc(S(=O)(=O)c5ccccc5)cc4)c3c2)cs1` [Example 23, 6-[2-({[2-(methanesulphonyl)ethyl]amino}methyl)-1,3-thiazol-4-yl]-N-[4-(benzenesulphonyl)phenyl]-4-quinazolinamine], the IC50 is less than 5 µM in test [1]; less than 5 µM in test [2]; less than 5 µM in test [3]; 25 to 50 µM in test [4]; less than 5 µM in test [5]; less than 0.1 µM against c-erbB-2.
For `CS(=O)(=O)CCNCc1nc(-c2ccc3ncnc(Nc4ccc(OCc5cccc(C(F)(F)F)c5)cc4)c3c2)cs1` [Example 24, 6-[2-({[2-(methanesulphonyl)ethyl]amino}methyl)-1,3-thiazol-4-yl]-N-(4-{[3-(trifluoromethyl)benzyl]oxy}phenyl)-4-quinazolinamine], the IC50 was less than 5 µM in test [1]; 5 to 25 µM in test [2]; 5 to 25 µM in test [3]; more than 50 µM in test [4]; 5 to 25 µM in test [5]; less than 0.1 µM against c-erbB-2.
As to `CS(=O)(=O)CCNCc1nc(-c2ccc3ncnc(Nc4ccc(OCc5cccc(F)c5)c(F)c4)c3c2)cs1` [Example 25, N-{3-fluoro-4-[(3-fluorobenzyl)oxy]phenyl}-6-[2-({[2-(methanesulphonyl)ethyl]amino}methyl)-1,3-thiazol-4-yl]-4-quinazolinamine], the IC50 is less than 5 µM in test [1]; less than 5 µM in test [2]; less than 5 µM in test [3]; more than 50 µM in test [4]; less than 5 µM in test [5]; less than 0.1 µM on c-erbB-2.
Take `CS(=O)(=O)CCNCc1nc(-c2ccc3ncnc(Nc4ccc5c(cnn5Cc5ccccc5)c4)c3c2)cs1` [Example 26, N-(1-benzyl-1H-indazol-5-yl)-6-[2-({[2-(methanesulphonyl)ethyl]amino}methyl)-1,3-thiazol-4-yl]-4-quinazolinamine]: the IC50 was less than 5 µM in test [1]; less than 5 µM in test [2]; less than 5 µM in test [3]; 5 to 25 µM in test [4]; less than 5 µM in test [5]; less than 0.1 µM against c-erbB-2.
`CS(=O)(=O)CCNCc1ccc(-c2ccc3ncnc(Nc4ccc(OCc5ccccc5)c(F)c4)c3c2)o1` [Example 27]: the IC50 in test [1] is less than 5 µM; in test [2], less than 5 µM; in test [3] it was less than 5 µM; in test [4], 5 to 25 µM; in test [5], less than 5 µM; at c-erbB-2 it was less than 0.1 µM.
Consider `CS(=O)(=O)CCNCc1ccc(-c2ccc3ncnc(Nc4ccc(OCc5ccccc5)c(Cl)c4)c3c2)o1` [Example 28], for which the IC50 in test [1] was less than 5 µM; in test [2], less than 5 µM; in test [3], less than 5 µM; in test [4], 25 to 50 µM; in test [5], less than 5 µM; against c-erbB-2 it was less than 0.1 µM.
For `COc1cc2ncnc(Nc3ccc(S(=O)(=O)c4ccccc4)cc3)c2cc1-c1ccc(CNCCS(C)(=O)=O)o1` [Example 33, 6-[5-({[2-(Methanesulphonyl)ethyl]amino}methyl)-2-furyl]-7-methoxy-N-(4-benzenesulphonyl)phenyl-4-quinazolinamine], the IC50 in test [1] was less than 5 µM; in test [2], less than 5 µM; in test [3], less than 5 µM; in test [4], less than 5 µM; in test [5], less than 5 µM; on c-erbB-2, less than 0.1 µM.
Consider `CS(=O)(=O)CCNCc1ccc(-c2cc3c(Nc4ccc(OCc5ccccc5)cc4)ncnc3cc2F)o1` [Example 34, N-[4-(Benzyloxy)phenyl]-7-fluoro-6-[5-({[2-(methanesulphonyl)ethyl]amino}methyl)-2-furyl]-4-quinazolinamine], for which the IC50 is less than 5 µM in test [1]; less than 5 µM in test [2]; less than 5 µM in test [3]; more than 50 µM in test [4]; less than 5 µM in test [5]; less than 0.1 µM on c-erbB-2.
As for `CS(=O)(=O)CCNCc1ccc(-c2cc3c(Nc4ccc5c(cnn5Cc5ccccc5)c4)ncnc3cc2F)o1` [Example 35], the IC50 was less than 5 µM in test [1]; less than 5 µM in test [2]; less than 5 µM in test [3]; 25 to 50 µM in test [4]; less than 5 µM in test [5]; less than 0.1 µM on c-erbB-2.
On to `CS(=O)(=O)CCNCc1ccc(-c2cc3c(Nc4ccc(S(=O)(=O)c5ccccc5)cc4)ncnc3cc2F)o1` [Example 36, N-[4-(Phenylsulphonyl)phenyl]-7-fluoro-6-[5-({[2-(methanesulphonyl)ethyl]amino]methyl)-2-furyl]-4-quinazolinamine], for which the IC50 in test [1] was 5 to 25 µM; in test [2], 5 to 25 µM; in test [3], 5 to 25 µM; in test [4] it was more than 50 µM; in test [5], 5 to 25 µM; against c-erbB-2, less than 0.1 µM.
On to `CS(=O)(=O)CCNCc1ccc(-c2ccc3ncnc(Nc4ccc(OCc5ccccc5)c(C(F)(F)F)c4)c3c2)o1` [Example 37], for which the IC50 in test [1] was less than 5 µM; in test [2], less than 5 µM; in test [3], less than 5 µM; in test [4] it was 25 to 50 µM; in test [5], less than 5 µM; against c-erbB-2, less than 0.1 µM.
